In the NIST ThermoML archive (doi:10.1021/acs.jced.6b00350):
Values joined by “and” are separate entries in the source; they are usually repeats but may differ in a detail not shown here. Equal entries are not always repeated.

Conditions: Liquid, Hot wire method

FC(F)CC(F)(F)F [1,1,1,3,3-pentafluoropropane]
Conditions | thermal conductivity
173.21 K, 150 kPa | 0.1235 W/m/K and 0.1232 W/m/K
173.3 K, 132 kPa | 0.1239 W/m/K
173.3 K, 133 kPa | 0.1234 W/m/K
173.3 K, 148 kPa | 0.1237 W/m/K and 0.1231 W/m/K
173.41 K, 150 kPa | 0.1234 W/m/K
173.51 K, 135 kPa | 0.1234 W/m/K and 0.1231 W/m/K
173.51 K, 148 kPa | 0.1235 W/m/K and 0.1238 W/m/K
173.66 K, 150 kPa | 0.1231 W/m/K
173.75 K, 136 kPa | 0.1237 W/m/K
173.75 K, 137 kPa | 0.1236 W/m/K
173.75 K, 148 kPa | 0.1236 W/m/K
173.91 K, 150 kPa | 0.1233 W/m/K and 0.1231 W/m/K
174.01 K, 138 kPa | 0.1235 W/m/K
174.01 K, 140 kPa | 0.1235 W/m/K
174.01 K, 148 kPa | 0.1235 W/m/K
174.01 K, 149 kPa | 0.1235 W/m/K
174.21 K, 150 kPa | 0.1234 W/m/K
174.29 K, 140 kPa | 0.1233 W/m/K
174.29 K, 141 kPa | 0.1231 W/m/K
174.3 K, 149 kPa | 0.1239 W/m/K and 0.1236 W/m/K
181.78 K, 159 kPa | 0.1224 W/m/K and 0.1223 W/m/K
182.06 K, 158 kPa | 0.1227 W/m/K and 0.1222 W/m/K
182.37 K, 158 kPa | 0.1222 W/m/K and 0.1225 W/m/K
182.5 K, 266 kPa | 0.1225 W/m/K
182.5 K, 269 kPa | 0.1226 W/m/K
182.51 K, 5857 kPa | 0.1236 W/m/K
182.51 K, 70521 kPa | 0.1336 W/m/K
182.52 K, 5874 kPa | 0.1237 W/m/K
182.52 K, 12298 kPa | 0.1248 W/m/K
182.52 K, 12334 kPa | 0.1252 W/m/K
182.53 K, 18829 kPa | 0.126 W/m/K
182.53 K, 18849 kPa | 0.126 W/m/K
182.53 K, 32455 kPa | 0.1283 W/m/K
182.54 K, 25387 kPa | 0.1271 W/m/K
182.54 K, 25434 kPa | 0.1275 W/m/K
182.54 K, 63262 kPa | 0.1331 W/m/K and 0.133 W/m/K
182.55 K, 32519 kPa | 0.128 W/m/K
182.6 K, 54974 kPa | 0.1317 W/m/K
182.6 K, 54979 kPa | 0.1314 W/m/K
182.64 K, 47632 kPa | 0.1303 W/m/K
182.64 K, 47638 kPa | 0.1309 W/m/K
182.68 K, 39974 kPa | 0.1293 W/m/K
182.68 K, 39979 kPa | 0.1294 W/m/K
182.7 K, 158 kPa | 0.1222 W/m/K
182.71 K, 158 kPa | 0.1222 W/m/K
182.81 K, 266 kPa | 0.1225 W/m/K
182.81 K, 278 kPa | 0.1224 W/m/K
182.81 K, 5870 kPa | 0.1236 W/m/K
182.81 K, 5874 kPa | 0.1234 W/m/K
182.81 K, 70507 kPa | 0.134 W/m/K
182.81 K, 70514 kPa | 0.134 W/m/K
182.82 K, 12333 kPa | 0.1247 W/m/K
182.83 K, 18827 kPa | 0.1259 W/m/K
182.83 K, 18835 kPa | 0.1259 W/m/K
182.83 K, 25436 kPa | 0.1272 W/m/K
182.84 K, 25420 kPa | 0.127 W/m/K
182.84 K, 32528 kPa | 0.1281 W/m/K
182.84 K, 32589 kPa | 0.128 W/m/K
182.85 K, 63255 kPa | 0.1331 W/m/K
182.91 K, 54970 kPa | 0.1314 W/m/K
182.92 K, 54983 kPa | 0.1316 W/m/K
182.95 K, 47626 kPa | 0.1304 W/m/K
182.95 K, 47631 kPa | 0.1305 W/m/K
182.99 K, 39966 kPa | 0.129 W/m/K
182.99 K, 39976 kPa | 0.1291 W/m/K
183.06 K, 158 kPa | 0.1223 W/m/K and 0.1222 W/m/K
183.13 K, 269 kPa | 0.1224 W/m/K
183.14 K, 277 kPa | 0.1224 W/m/K
183.14 K, 5876 kPa | 0.1234 W/m/K
183.14 K, 5877 kPa | 0.1234 W/m/K
183.14 K, 70492 kPa | 0.1338 W/m/K
183.14 K, 70493 kPa | 0.134 W/m/K
183.15 K, 12341 kPa | 0.1246 W/m/K
183.15 K, 18865 kPa | 0.1257 W/m/K
183.15 K, 25402 kPa | 0.1266 W/m/K
183.16 K, 12323 kPa | 0.1246 W/m/K
183.16 K, 18832 kPa | 0.1258 W/m/K
183.16 K, 25441 kPa | 0.1268 W/m/K
183.16 K, 32517 kPa | 0.1281 W/m/K
183.17 K, 32553 kPa | 0.1282 W/m/K
183.18 K, 63248 kPa | 0.1329 W/m/K
183.19 K, 63254 kPa | 0.133 W/m/K
183.25 K, 54977 kPa | 0.1312 W/m/K
183.25 K, 54980 kPa | 0.1317 W/m/K
183.29 K, 47629 kPa | 0.13 W/m/K
183.3 K, 47628 kPa | 0.1305 W/m/K
183.34 K, 39964 kPa | 0.1291 W/m/K
183.34 K, 39965 kPa | 0.1291 W/m/K
183.5 K, 279 kPa | 0.1222 W/m/K
183.5 K, 290 kPa | 0.1225 W/m/K
183.5 K, 5883 kPa | 0.1234 W/m/K
183.5 K, 12421 kPa | 0.1245 W/m/K
183.5 K, 70475 kPa | 0.1338 W/m/K
183.5 K, 70484 kPa | 0.1336 W/m/K
183.51 K, 5882 kPa | 0.1233 W/m/K
183.51 K, 12360 kPa | 0.1246 W/m/K
183.51 K, 18836 kPa | 0.1258 W/m/K
183.51 K, 18859 kPa | 0.1258 W/m/K
183.51 K, 25404 kPa | 0.1269 W/m/K
183.51 K, 25455 kPa | 0.1269 W/m/K
183.51 K, 32519 kPa | 0.1282 W/m/K
183.51 K, 32578 kPa | 0.1281 W/m/K
183.54 K, 63251 kPa | 0.133 W/m/K
183.55 K, 63252 kPa | 0.1329 W/m/K
183.62 K, 54975 kPa | 0.1314 W/m/K
183.66 K, 47626 kPa | 0.1304 W/m/K
183.67 K, 47632 kPa | 0.1303 W/m/K
183.71 K, 39948 kPa | 0.129 W/m/K
183.71 K, 39959 kPa | 0.1291 W/m/K
183.88 K, 5875 kPa | 0.1233 W/m/K
183.88 K, 18828 kPa | 0.1257 W/m/K
183.88 K, 18858 kPa | 0.1257 W/m/K
183.88 K, 25416 kPa | 0.1267 W/m/K
183.88 K, 32497 kPa | 0.1281 W/m/K
183.88 K, 70464 kPa | 0.1338 W/m/K
183.89 K, 5878 kPa | 0.1233 W/m/K
183.89 K, 12374 kPa | 0.1246 W/m/K
183.89 K, 12395 kPa | 0.1244 W/m/K
183.89 K, 25431 kPa | 0.1268 W/m/K
183.89 K, 32541 kPa | 0.1281 W/m/K
183.89 K, 70475 kPa | 0.1341 W/m/K
183.9 K, 282 kPa | 0.1223 W/m/K
183.9 K, 287 kPa | 0.1222 W/m/K
183.93 K, 63243 kPa | 0.1325 W/m/K
183.93 K, 63247 kPa | 0.1328 W/m/K
184.01 K, 54967 kPa | 0.1313 W/m/K
184.01 K, 54970 kPa | 0.1314 W/m/K
184.06 K, 47633 kPa | 0.1303 W/m/K
184.06 K, 47634 kPa | 0.13 W/m/K
184.1 K, 39951 kPa | 0.129 W/m/K
184.1 K, 39957 kPa | 0.129 W/m/K
201.76 K, 4752 kPa | 0.1207 W/m/K
201.76 K, 4760 kPa | 0.1207 W/m/K
201.78 K, 10055 kPa | 0.1218 W/m/K
201.78 K, 10078 kPa | 0.1219 W/m/K
201.81 K, 15810 kPa | 0.1231 W/m/K
201.85 K, 253 kPa | 0.1197 W/m/K
201.86 K, 245 kPa | 0.1197 W/m/K
